A short description of series [1]: in vivo. Conditions: mouse, in vivo, iv. Here is the method:
(§1) The primary screening "in vivo" was carried out in BDF1 mice bearing P388 Doxorubicin-resistant Johnson's leukemia (P388/Dx) (10^2 cell/mouse). The drugs were administered iv on day 1 after tumor inoculation.
(§2) ^c O.D. = Optimal Dose: maximally tollerated dose.
(§3) ^d T/C % = Median survival time of treated mice over median survival
(§4) time of controls × 100.

Series [2] relates to Doxorubicin-resistant P388 Johnson's Leukemia (P388/Dx). The series can be described thus: in vivo. The settings on record: BDF1 mice bearing P388/Dx Johnson (10^2 cell/mouse), iv on day 1, at O.D. The procedure:
as §1, §2, §3, §4

The test system of series [3] is mammary human carcinoma (MX1). Put plainly: Effect on mammary human carcinoma (MX1), iv and oral route. It counts as in vivo. Conditions: at O.D.
Excerpt: as §2
(§5) Effect of A4 on mammary human carcinoma (MX1).
(§6) ^h iv q7dx3 = treatment iv every seven days for three times
(§7) ^i po q7dx3 = oral treatment every seven days for three times

Assay in series [4]: as above
It counts as in vivo. The settings on record: in vivo, read-out: O.D. = Optimal Dose: maximally tollerated dose.
Excerpt: as §2, §5, §6, §7

Series [5] relates to Doxorubicin-resistant P388 Leukemia (Schabel) (P388/Dx). The series can be described thus: Effect on Doxorubicin-resistant P388 leukemia (Schabel) in vitro (treatment 1 hr). It counts as cell-based. Conditions: read-out: IC50 (concentration inhibiting 50% of cellular survival), P388/Dx. The source says: (§8) Effect of A4 on sensitive and Doxorubicin-resistant P388
(§9) Leukemia (Schabel) "in vitro" (treatment 1 hr).
(§10) ^c IC50 = concentration inhibiting 50% of cellular survival.

The subject of a further series is LoVo. Put plainly: Colony assay test against LoVo cells in vitro (treatment for 4 hrs). The settings on record: Homo sapiens, read-out: IC50 (concentration inhibiting 50% of colony growth), LoVo. It counts as cell-based. The text has this: The compounds have been tested in several experimental system in order to ascertain their cytotoxicity and antitumor activity in experimental animals in comparison with parent Doxorubicin. The new anthracyclines result more cytotoxic than the parent drug on LoVo and LoVo Doxorubicin-resistant cell line (LoVo/Dx), Table 1, and are active "in vivo" against doxorubicin-resistant cell lines.
(§11) Colony assay test against LoVo and LoVo/Dx resistant cells
(§12) "in vitro" (treatment for 4 hrs)
(§13) ^a IC50 = concentration inhibiting 50% of colony growth

Another series relates to murine mammary carcinoma. The series can be described thus: Effect on murine mammary carcinoma, iv and oral route. It counts as in vivo. Conditions: for Tumor Inhibition %: at O.D.
Excerpt: as §2
(§14) Effect of A4 on murine mammary carcinoma.
(§15) ^f iv q4dx4 = treatment iv every four days for four times
(§16) ^g po q4dx4 = oral treatment every four days for four times

Assay in series [6]: as above
It counts as in vivo. Conditions: mouse, in vivo, read-out: O.D. = Optimal Dose: maximally tollerated dose.
Excerpt: as §2, §14, §15, §16

The nature of series [7]: in vivo. Conditions: mouse, in vivo, iv.
Excerpt: as §2, §3, §4
This is another data set of the same source.

The test system of series [8] is Doxorubicin-resistant P38B Schabel's Leukemia. Put plainly: in vivo. Conditions: BDF1 mice, P388/Dx Schabel (10^2 cell/mouse), iv on day 1, at O.D.
Excerpt: as §2, §3, §4

The next series relates to LoVo/Dx resistant cells. Put plainly: cells. It counts as cell-based. Conditions: for IC50: read-out: IC50 (concentration inhibiting 50% of colony growth), LoVo/Dx; for R.I. = Resistance Index = (IC50 LoVo/Dx)/(IC50 LoVo): LoVo/Dx vs LoVo.
Excerpt: as §11, §12, §13
^b R.I. = Resistance Index = (IC50 LoVo/Dx)/(IC50 LoVo)

The subject of another series is P388 Leukemia (Schabel). Put plainly: Effect on sensitive P388 leukemia (Schabel) in vitro (treatment 1 hr). It counts as cell-based. Conditions: Mus musculus, read-out: IC50 (concentration inhibiting 50% of cellular survival), P388.
Excerpt: as §8, §9, §10

The mark [9] stands for this setting: iv q7dx3 (iv every seven days for three times).
[10] abbreviates: po q7dx3 (oral every seven days for three times).
[11] abbreviates: iv q4dx4 (iv every four days for four times).
[12] abbreviates: po q4dx4 (oral every four days for four times).

Values after ≈ are worked out from the molar mass of the structure shown. Read-outs that look alike come from different tables or passages of the source.

Experimental findings from US5304687A, “Morpholinyl derivatives of doxorubicin and process for their preparation” (priority 1989, dated 1994) are described below.

Regarding `COc1cccc2c1C(=O)c1c(O)c3c(c(O)c1C2=O)C[C@@](O)(C(=O)CO)C[C@@H]3O[C@H]1C[C@H](N2CCO[C@H](OC)C2)[C@H](O)[C@H](C)O1` [Compound A4, 3'-deamino-3'-(2"(S)-methoxy-4"-morpholinyl)-doxorubicin], the MTD worked out at 0.09 mg/kg in “in vivo [1]”; 0.05 mg/kg in series [4] (setting [9]); 0.13 mg/kg in [4] (setting [10]); 0.065 mg/kg in series [6] (setting [11]); 0.1 mg/kg in series [6] (setting [12]); 0.09 mg/kg in the series “in vivo [7]”. Further, the “T/C % = median survival time of treated mice over median survival time of controls × 100” value (“T/C % = median survival time” for short) in series [2] is given as 250%; in series [8], 153%. For the same compound, the “Tumor Inhibition %” value in series [3] (setting [9]) worked out at 98%; in series [3] (setting [10]), 99%; in the series with murine mammary carcinoma (setting [11]) it was 94%; in the series with murine mammary carcinoma (setting [12]), 97%. Moreover, the IC50 came to 0.0243 µg/mL (≈ 0.0378 µM) in series [5] (P388/DX, 1 h); 8.7 ng/mL (≈ 0.0135 µM) in the series on LoVo (4 h); 0.0317 µg/mL (≈ 0.0493 µM) in the series on LoVo/Dx resistant cells (LoVo/DX, 4 h); 0.0076 µg/mL (≈ 0.0118 µM) in the series on P388 Leukemia (Schabel) (P388, 1 h). Further, in the series with LoVo/Dx resistant cells (treatment for 4 hrs), the “R.I. = Resistance Index = (IC50 LoVo/Dx)/(IC50 LoVo)” value (“R.I. = Resistance Index =” for short) stood at 3.6.
Turning to `COc1cccc2c1C(=O)c1c(O)c3c(c(O)c1C2=O)C[C@@](O)(C(=O)CO)C[C@@H]3O[C@H]1C[C@H](N2CCO[C@@H](OC)C2)[C@H](O)[C@H](C)O1` [Compound A5, 3'-deamino-3'-(2"(R)-methoxy-4"-morpholinyl)-doxorubicin], the MTD in “in vivo [1]” stood at 0.13 mg/kg. Also, the “T/C % = median survival time” value in series [2] was determined as 244%. The IC50 in the series on LoVo (4 h) was determined as 6.5 ng/mL (≈ 0.0101 µM); with LoVo/Dx resistant cells (LoVo/DX, 4 h), 0.0401 µg/mL (≈ 0.0623 µM). Besides, the “R.I. = Resistance Index =” value with LoVo/Dx resistant cells (treatment for 4 hrs) was 6.1.
With `COc1cccc2c1C(=O)c1c(O)c3c(c(O)c1C2=O)C[C@@](O)(C(=O)CO)C[C@@H]3O[C@H]1C[C@H](N)[C@H](O)[C@H](C)O1` [Doxorubicin, doxorubicin], the “T/C % = median survival time” value in [2] was determined as 86%; in [8], 100%. Also, the results for the “Tumor Inhibition %” value (in series [3] (setting [9]); with murine mammary carcinoma (setting [11])) were 72% and 99%, respectively. In addition, the MTD in series [4] (setting [9]) is 6 mg/kg. Also, the IC50 in [5] (P388/Dx (Schabel), in vitro, treatment 1 hr) amounted to 4 µg/mL (≈ 7.36 µM); in the series on LoVo (in vitro, treatment for 4 hrs), 48.8 ng/mL (≈ 0.0898 µM); in the series on LoVo/Dx resistant cells (LoVo/Dx, in vitro, treatment for 4 hrs) it was 2.55 µg/mL (≈ 4.7 µM); in the series on P388 Leukemia (Schabel) (sensitive P388 (Schabel), in vitro, treatment 1 hr), 0.0527 µg/mL (≈ 0.097 µM). The “O.D. = Optimal Dose: maximally tollerated dose” value with murine mammary carcinoma (setting [11]) was found to be 5.85 mg/kg. The “R.I. = Resistance Index =” value in the series with LoVo/Dx resistant cells (treatment for 4 hrs) was 52.6.
